Data reported in patent EP2966448B1, “METHOD FOR THE PREDICTION OR PROGNOSIS OF THE RESPONSE OF A HUMAN SUBJECT SUFFERING FROM CANCER TO TREATMENT WITH AN ANTAGONIST OF THE NK1 RECEPTOR” (priority 2013, dated 2014).
Where two headings read alike, the source gives them in different places.

What was measured:
[1] = test system: Melanoma (Nodular Melanoma); assay: Inhibition of primary tumor cell cultures vs Kras mutation (Example 2); assay type: cell-based, human; conditions: Melanoma (Nodular Melanoma), 100 micromolar
Description: (§1) Cell cultures. To obtain tumor cells from human primary tumors we used the method described in De Bari et al. (De Bari et al. 2001). Briefly, small pieces of the tumors were digested into a hyaluronidase solution (Sigma-Aldrich, USA) at a concentration of 1 mg/ml during 15 minutes at 37°C, and then they were treated with 6 mg/ml of collagenase type IV (Invitrogen) during 2 hours at 37°C. Consecutively, cells were washed, and resuspended in the DMEM culture medium with high concentration of glucose (Dulbecco's Modified Eagle's Medium, Invitrogen) supplemented with 1% of antibiotics-antimycotics (Invitrogen) and with 1% of sodium pyruvate (Invitrogen), and the cells were seeded in culture slides at a concentration of 10.000 cells per square centimeter. When cells reached confluence, the adherent cells were separated using sterile trypsin at 0,5% (Invitrogen) and they were used among passages 3 and 9. For the assays shown next, tumor cells were seeded on slides at a concentration of 25.000 cells per well. A total of 6 wells containing the tumor cells were used as survival control. […] All the cultures were kept during 48 hours and later on recollected for their analysis.
(§2) In each case the presence or not of mutations in K-ras gene was determined.
(§3) To determine the existence of mutations in the K-ras gene DNA from cancer tumor cells was extracted from samples obtained from the different cancer tumor cells, using DNA extraction kits from Takara (Madison, WI, US) or Ambion (Huntingdon, Cambridgeshire, United Kingdom), following the manufacturer's instructions, and as it has been previously published (Di Fiore F, et al. 2007). Consecutively it was analyzed by sequencing the exon 2 of the KRAS gene, , by means of PCR amplification from previously extracted cancer tumor DNA, using the following sense primer (SEQ ID NO. 15): 5'-[sequence]-3' and anti-sense primer (SEQ ID NO. 16): 5'-[sequence]-3'. After the purification using the Qiagen extraction kit, the PCR products were sequenced using the Big Dye Terminator Kit V3.1 (Applied Biosystems, Foster City, CA, U.S.) and an ABI Prism 377 or 3100 DNA sequencer (Applied Biosystems). The presence of a heterozygous mutation in the KRAS gene in cancer tumor cells of the cultures was defined as the appearance of a mutant peak of a height of at least a third of the wild type. All the sequence analysis were executed at least twice in two independent PCR.
The percentages of inhibition are expressed in percentage of variation in relation to control ± standard deviation.

[2] = test system: Thyroid carcinoma (papillary carcinoma); assay: as above; assay type: cell-based, human; conditions: Thyroid carcinoma (papillary carcinoma), 100 micromolar
Description: (§4) To obtain tumor cells from human primary tumors we used the method described in De Bari et al. (De Bari et al. 2001). Briefly, small pieces of the tumors were digested into a hyaluronidase solution (Sigma-Aldrich, USA) at a concentration of 1 mg/ml during 15 minutes at 37°C, and then they were treated with 6 mg/ml of collagenase type IV (Invitrogen) during 2 hours at 37°C. Consecutively, cells were washed, and resuspended in the DMEM culture medium with high concentration of glucose (Dulbecco's Modified Eagle's Medium, Invitrogen) supplemented with 1% of antibiotics-antimycotics (Invitrogen) and with 1% of sodium pyruvate (Invitrogen), and the cells were seeded in culture slides at a concentration of 10.000 cells per square centimeter. When cells reached confluence, the adherent cells were separated using sterile trypsin at 0,5% (Invitrogen) and they were used among passages 3 and 9. For the assays shown next, tumor cells were seeded on slides at a concentration of 25.000 cells per well. A total of 6 wells containing the tumor cells were used as survival control. […] All the cultures were kept during 48 hours and later on recollected for their analysis.
as §2, §3
(§5) The antibody against NK1 receptor (Table 16) was used at 1/50 concentration. The percentages of inhibition are expressed in percentage of variation in relation to control ± standard deviation.

Prostate carcinoma = assay: cells; conditions: Homo sapiens, 1 micromolar
Description: as §1
(§6) Immunohistochemistry techniques. The presence of NK1 receptors was also analyzed using immunohistochemistry techniques. Briefly, a sample of each of the cultures of the cell lines used in the present invention, was centrifuged (5 minutes at 1.500 rpm) and the pellet obtained was dehydrated using increasing concentrations of ethanol and, finally, xylol. Then, said dehydrated samples were embedded in paraffin, creating a block of cells. Such paraffin blocks were cut with a microtome at 5 microns thickness, and were placed on microscope slides adequate to perform immunohistochemistry techniques. Consecutively, they were de-paraffinized by immersing them in xylol, to be finally hydrated using a solution containing decreasing concentrations of ethanol, and finally submerged them into water. […] After this, the samples were left to cool down at room temperature for 10 minutes. The endogenous peroxidase activity was blocked with 3% peroxide of hydrogen for 30 minutes at room temperature. After washing the samples with 0.05 M of Tris buffer, they were incubated with 10% non-immune pork serum at for 30 minutes at room temperature. To analyze the expression of NK1 receptors, the cellular samples were incubated in the presence of anti-NK1 antibodies (S8305, Sigma-Aldrich) diluted 1:1000, overnight at 4°C. Afterwards, the samples were washed in Tris buffer 0.05 M at room temperature. The next step was the addition of Envision System-HRP (Dako) reagents for 30 minutes at room temperature. Then, the samples were washed again in Tris buffer 0.05 M and the immunoreactivity was visualized through light microscopy with a chromogenic solution containing 3,3'-Diaminobenzidine (DAB+; Dako, USA). To differentiate the cell nuclei, they were slightly stained with hematoxylin. As negative control, it was used samples not incubated with the primary antibody anti-NK1, which was replaced by non-immune serum. All the samples were evaluated.
(§7) To value the immunostaining in each of the cases six cuts were performed to be analyzed by the immunohistochemistry technique. In each of the six cuts, it was counted cells in 20 fields (magnification 400x) using an Olympus microscope (model CX31). In each field it was counted the total number of cells and the number of cells presenting immunostaining, calculating afterwards the percentage of cells which presented immunostaining.

[3] = test system: human primary tumor cells; assay: Inhibition of primary tumor cell cultures vs absence or presence of ERK  protein (Example 3; tumor type per table line); assay type: cell-based; conditions: for Percentage of inhibition of cell cultures: 100 micromolar
[4] = test system: Urinary bladder carcinoma (transitional cell carcinoma); assay: Inhibition of primary tumor cell cultures vs Kras mutation (Example 2); assay type: cell-based, human; conditions: Urinary bladder carcinoma (transitional cell carcinoma), 100 micromolar
Description: as §4, §2, §3, §5

[5] = test system: Thyroid carcinoma (papillary type); assay: Inhibition of primary tumor cell cultures (48 hours) vs NK1 receptor immunostaining (Example 1); assay type: cell-based; conditions: Homo sapiens, 1 micromolar, read-out: Percentage of inhibition of cell cultures
Description: as §1, §6, §7

Endometrium carcinoma = assay: cells; conditions: Homo sapiens, 1 micromolar
Description: as §1, §6, §7

Leukemia B = assay: Inhibition of primary tumor cell cultures (48 hours) vs NK1 receptor immunostaining (Example 1); assay type: cell-based; conditions: Homo sapiens, NK1 receptor immunostaining Group 1 (less than 20% of the cells); 1 micromolar; read-out: Percentage of inhibition of cell cultures
[6] = Cases with Kras non-mutated (wild type)
[7] = read-out: Percentage of inhibition of cell cultures, NK1 receptor immunostaining Group 1 (less than 20% of the cells)
[8] = read-out: Percentage of inhibition of cell cultures, NK1 receptor immunostaining Group 2 (20-80% of the cells)
[9] = read-out: Percentage of inhibition of cell cultures, NK1 receptor immunostaining Group 3 (more than 80% of the cells)
[10] = read-out: Percentage of inhibition of cell cultures, NK1 receptor immunostaining Intensity grade 1
[11] = read-out: Percentage of inhibition of cell cultures, NK1 receptor immunostaining Intensity grade 2
[12] = read-out: Percentage of inhibition of cell cultures, NK1 receptor immunostaining Intensity grade 3

## Cc1cc(F)ccc1[C@H]1CNCCN1C(=O)N(C)[C@H](C)c1cc(C(F)(F)F)cc(C(F)(F)F)c1 [Vestipitant]
[1]; Cases with Kras mutated
  Percentage of inhibition of cell cultures: 23±5 percentage
[1]; [6]
  Percentage of inhibition of cell cultures: 96±5 percentage
[2]; Cases with Kras mutated
  Percentage of inhibition of cell cultures: 26±4 percentage
[2]; [6]
  Percentage of inhibition of cell cultures: 94±5 percentage
Prostate carcinoma; [7]
  inhibition at 1 µM: 17 ± 4%
Prostate carcinoma; [8]
  inhibition at 1 µM: 46 ± 3%
Prostate carcinoma; [9]
  inhibition at 1 µM: 92 ± 5%
Prostate carcinoma; [10]
  inhibition at 1 µM: 18 ± 4%
Prostate carcinoma; [11]
  inhibition at 1 µM: 47 ± 4%
Prostate carcinoma; [12]
  inhibition at 1 µM: 92 ± 4%
[3]; Breast carcinoma (ductal adenocarcinoma), cases with presence of ERK
  Percentage of inhibition of cell cultures: 94±3 percentage
[3]; Breast carcinoma (ductal adenocarcinoma), cases without presence of ERK
  Percentage of inhibition of cell cultures: 26±4 percentage
[3]; Burkitt Lymphoma, cases with presence of ERK
  Percentage of inhibition of cell cultures: 93±5 percentage
[3]; Burkitt Lymphoma, cases without presence of ERK
  Percentage of inhibition of cell cultures: 26±4 percentage
[3]; Carcinoma of the uterine cervix (Squamous cell carcinoma), cases with presence of ERK
  Percentage of inhibition of cell cultures: 94±4 percentage
[3]; Carcinoma of the uterine cervix (Squamous cell carcinoma), cases without presence of ERK
  Percentage of inhibition of cell cultures: 29±3 percentage
[3]; Colon carcinoma (Adenocarcinoma), cases with presence of ERK
  Percentage of inhibition of cell cultures: 94±3 percentage
[3]; Colon carcinoma (Adenocarcinoma), cases without presence of ERK
  Percentage of inhibition of cell cultures: 23 percentage
[3]; Endometrium carcinoma, cases with presence of ERK
  Percentage of inhibition of cell cultures: 93±3 percentage
[3]; Endometrium carcinoma, cases without presence of ERK
  Percentage of inhibition of cell cultures: 28±5 percentage
[3]; Gastric carcinoma (Adenocarcinoma), cases with presence of ERK
  Percentage of inhibition of cell cultures: 95±3 percentage
[3]; Gastric carcinoma (Adenocarcinoma), cases without presence of ERK
  Percentage of inhibition of cell cultures: 24±4 percentage
[3]; Glioma (astrocytoma), cases with presence of ERK
  Percentage of inhibition of cell cultures: 95±3 percentage
[3]; Glioma (astrocytoma), cases without presence of ERK
  Percentage of inhibition of cell cultures: 27±4 percentage
[3]; Lung carcinoma (non small cell lung carcinoma), cases with presence of ERK
  Percentage of inhibition of cell cultures: 95±5 percentage
[3]; Lung carcinoma (non small cell lung carcinoma), cases without presence of ERK
  Percentage of inhibition of cell cultures: 26±2 percentage
[3]; Lung carcinoma (small cell lung carcinoma), cases with presence of ERK
  Percentage of inhibition of cell cultures: 96±6 percentage
[3]; Lung carcinoma (small cell lung carcinoma), cases without presence of ERK
  Percentage of inhibition of cell cultures: 27±4 percentage
[3]; Melanoma (Nodular Melanoma), cases with presence of ERK
  Percentage of inhibition of cell cultures: 94±5 percentage
[3]; Melanoma (Nodular Melanoma), cases without presence of ERK
  Percentage of inhibition of cell cultures: 25±3 percentage
[3]; Non Hodgkin Lymphoma B (diffuse B cell lymphoma), cases with presence of ERK
  Percentage of inhibition of cell cultures: 96±3 percentage
[3]; Non Hodgkin Lymphoma B (diffuse B cell lymphoma), cases without presence of ERK
  Percentage of inhibition of cell cultures: 24±4 percentage
[3]; Non Hodgkin Lymphoma T (diffuse T cell lymphoma), cases with presence of ERK
  Percentage of inhibition of cell cultures: 92±4 percentage
[3]; Non Hodgkin Lymphoma T (diffuse T cell lymphoma), cases without presence of ERK
  Percentage of inhibition of cell cultures: 25±2 percentage
[3]; Ovarian carcinoma (Adenocarcinoma), cases with presence of ERK
  Percentage of inhibition of cell cultures: 95±5 percentage
[3]; Ovarian carcinoma (Adenocarcinoma), cases without presence of ERK
  Percentage of inhibition of cell cultures: 24±2 percentage
[3]; Pancreatic carcinoma (Adenocarcinoma), cases with presence of ERK
  Percentage of inhibition of cell cultures: 93±4 percentage
[3]; Pancreatic carcinoma (Adenocarcinoma), cases without presence of ERK
  Percentage of inhibition of cell cultures: 24±34 percentage
[3]; Prostate carcinoma, cases with presence of ERK
  Percentage of inhibition of cell cultures: 94±4 percentage
[3]; Prostate carcinoma, cases without presence of ERK
  Percentage of inhibition of cell cultures: 22±3 percentage
[3]; Renal cell carcinoma (clear cell renal cell carcinoma), cases with presence of ERK
  Percentage of inhibition of cell cultures: 92±2 percentage
[3]; Renal cell carcinoma (clear cell renal cell carcinoma), cases without presence of ERK
  Percentage of inhibition of cell cultures: 25±2 percentage
[3]; Thyroid carcinoma (follicular carcinoma), cases with presence of ERK
  Percentage of inhibition of cell cultures: 94±4 percentage
[3]; Thyroid carcinoma (follicular carcinoma), cases without presence of ERK
  Percentage of inhibition of cell cultures: 25±3 percentage
[3]; Thyroid carcinoma (papillary carcinoma), cases with presence of ERK
  Percentage of inhibition of cell cultures: 96±3 percentage
[3]; Thyroid carcinoma (papillary carcinoma), cases without presence of ERK
  Percentage of inhibition of cell cultures: 26±4 percentage
[3]; Undifferentiated Pleomorphic Sarcoma (malignant fibrous histiocytoma grade 3), cases with presence of ERK
  Percentage of inhibition of cell cultures: 93±4 percentage
[3]; Undifferentiated Pleomorphic Sarcoma (malignant fibrous histiocytoma grade 3), cases without presence of ERK
  Percentage of inhibition of cell cultures: 26±2 percentage
[3]; Urinary bladder carcinoma (transitional cell carcinoma), cases with presence of ERK
  Percentage of inhibition of cell cultures: 97±5 percentage
[3]; Urinary bladder carcinoma (transitional cell carcinoma), cases without presence of ERK
  Percentage of inhibition of cell cultures: 24±5 percentage
[3]; cancer cell cultures that show more presence of ERK, compared, non-peptidic antagonists 100 micromolar, antibody 1/50
  inhibition of cell proliferation: higher inhibition
[4]; Cases with Kras mutated
  Percentage of inhibition of cell cultures: 25±5 percentage
[4]; [6]
  Percentage of inhibition of cell cultures: 95±6 percentage
[5]; NK1 receptor immunostaining Group 1 (less than 20% of the cells)
  inhibition at 1 µM: 15 ± 3%
[5]; NK1 receptor immunostaining Group 2 (20-80% of the cells)
  inhibition at 1 µM: 47 ± 5%
[5]; NK1 receptor immunostaining Group 3 (more than 80% of the cells)
  inhibition at 1 µM: 96 ± 4%
[5]; NK1 receptor immunostaining Intensity grade 1
  inhibition at 1 µM: 16 ± 2%
[5]; NK1 receptor immunostaining Intensity grade 2
  inhibition at 1 µM: 47 ± 5%
[5]; NK1 receptor immunostaining Intensity grade 3
  inhibition at 1 µM: 96 ± 5%
Endometrium carcinoma; [7]
  inhibition at 1 µM: 15 ± 3%
Endometrium carcinoma; [8]
  inhibition at 1 µM: 44 ± 3%
Endometrium carcinoma; [9]
  inhibition at 1 µM: 93 ± 6%
Endometrium carcinoma; [10]
  inhibition at 1 µM: 18 ± 2%
Endometrium carcinoma; [11]
  inhibition at 1 µM: 47 ± 4%
Endometrium carcinoma; [12]
  inhibition at 1 µM: 93 ± 5%
Leukemia B
  inhibition at 1 µM: 16 ± 5%
